One data set deals with S. mutans biofilm. Put plainly: S. mutans biofilm formation on saliva-coated hydroxyapatite disks (crystal violet). Format: cell-based. The conditions noted are these: HAP disks pretreated with 60 μl 10 mM, 60 min; 24 h culture at 37° C.; relative to solvent control. As to the method:
In this example, it was investigated whether “ApibisPhos UD” has a significant influence on S. mutans-mediated biofilm formation using hydroxyapatite discs coated with saliva under conditions simulating the oral cavity.
For this purpose, sterile hydroxyapatite disks (Clarkson Chromatography Products Inc., Ø5 mm×2 mm) were coated with saliva (Lee Biosolutions, human pooled donors) as substrate for 60 minutes and then incubated with ApiBisPhos UD (60 μl; 10 mM in DMSO/ethanol mixture, 20/80%) for 60 minutes. After washing twice with DPBS, these pretreated hydroxyapatite disks were coated with S. mutans preculture (1.5×10^8 bacteria per ml in Balmelli broth) and cultured aerobically at 37° C. for 24 hours. The grown biofilm was fixed with 100% ethanol (30 min, 25° C.), stained with 0.06% (w/v) crystal violet (60 min, 25° C.) and the dye eluted with 30% (v/v) acetic acid quantified by measuring the absorbance at 570 nm. The measured values were set in relation to the solvent control (DMSO/ethanol mixture; 20/80%), i.e. without the use of ApibisPhos UD.

Data set [1] has as its target T1, GtfC enzyme activity of S. mutans (Streptococcus mutans serotype c, UniProt P13470).
T1 construct: purchased nzytech
Put plainly: GtfC activity with flavonoid derivative bound to hydroxyapatite. Format: biochemical. Particulars: bound to HAP as in Example 4; activity in supernatant; FIG. 4. As to the method: ApiBisPhos UD was bound to HAP as described in Example 4 and then incubated with GtfC as described in Example 3. The HAP was then centrifuged off and the GtfC activity in the supernatant was then determined as described in Example 3. A similar procedure was followed with the further flavonoid derivative “ApiBisPhos EG” according to the invention. […] In other words, the further example of a flavonoid derivative according to the invention (“ApiBisPhos EG”) confirms the successful functioning of the present invention as the basis for achieving the advantage according to the invention based on the adhesion of the flavonoid derivative according to the invention to the tooth surface comprising hydroxyapatite, so that the flavonoid derivative can prevent or to a great extent inhibit the formation of biofilm causing dental diseases on the tooth surfaces treated with the flavonoid derivative in the long term.

The target in data set [2] is T2, glucosyltransferase C of S. mutans (Streptococcus mutans serotype c, UniProt P13470).
T2 construct: purchased nzytech
T2 sequence (P13470 35-1455): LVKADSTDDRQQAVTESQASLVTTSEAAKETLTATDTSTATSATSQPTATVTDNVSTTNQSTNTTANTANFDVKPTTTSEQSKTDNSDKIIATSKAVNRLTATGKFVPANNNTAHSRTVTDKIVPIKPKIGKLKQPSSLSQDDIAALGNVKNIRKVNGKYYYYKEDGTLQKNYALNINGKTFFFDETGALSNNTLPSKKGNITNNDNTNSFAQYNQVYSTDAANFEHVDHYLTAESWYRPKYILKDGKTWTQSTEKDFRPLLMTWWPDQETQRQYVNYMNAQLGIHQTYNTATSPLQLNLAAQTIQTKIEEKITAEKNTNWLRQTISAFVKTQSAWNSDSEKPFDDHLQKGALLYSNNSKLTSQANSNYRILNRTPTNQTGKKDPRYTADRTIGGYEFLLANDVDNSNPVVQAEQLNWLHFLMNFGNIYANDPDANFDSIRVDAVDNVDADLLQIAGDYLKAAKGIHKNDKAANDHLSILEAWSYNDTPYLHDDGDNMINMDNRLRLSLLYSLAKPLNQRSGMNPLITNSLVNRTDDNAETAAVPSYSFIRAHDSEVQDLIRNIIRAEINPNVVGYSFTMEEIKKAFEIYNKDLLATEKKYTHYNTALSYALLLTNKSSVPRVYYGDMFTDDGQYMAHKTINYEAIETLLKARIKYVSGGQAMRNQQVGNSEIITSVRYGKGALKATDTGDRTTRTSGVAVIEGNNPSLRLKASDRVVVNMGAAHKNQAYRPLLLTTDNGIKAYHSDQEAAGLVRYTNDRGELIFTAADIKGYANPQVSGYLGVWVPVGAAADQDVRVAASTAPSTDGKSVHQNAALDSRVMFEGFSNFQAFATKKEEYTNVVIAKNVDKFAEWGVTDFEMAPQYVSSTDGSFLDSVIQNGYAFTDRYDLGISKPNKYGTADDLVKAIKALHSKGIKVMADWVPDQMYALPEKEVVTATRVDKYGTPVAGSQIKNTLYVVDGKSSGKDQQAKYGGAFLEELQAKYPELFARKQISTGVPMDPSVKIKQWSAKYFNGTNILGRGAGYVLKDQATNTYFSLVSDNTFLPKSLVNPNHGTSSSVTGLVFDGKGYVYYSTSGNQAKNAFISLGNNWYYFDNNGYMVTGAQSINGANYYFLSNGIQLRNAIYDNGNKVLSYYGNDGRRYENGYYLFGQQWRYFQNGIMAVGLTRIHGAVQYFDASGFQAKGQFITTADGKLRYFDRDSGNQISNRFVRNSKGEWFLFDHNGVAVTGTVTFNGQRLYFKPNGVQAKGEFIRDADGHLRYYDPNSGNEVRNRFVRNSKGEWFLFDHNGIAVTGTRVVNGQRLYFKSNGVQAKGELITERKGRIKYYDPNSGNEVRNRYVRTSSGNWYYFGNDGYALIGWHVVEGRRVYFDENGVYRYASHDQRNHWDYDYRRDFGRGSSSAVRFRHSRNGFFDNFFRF
Description: Inhibition of glucosyltransferase GtfC activity (fructose release, K-FRUGL kit). Format: biochemical. Particulars: for inhibition of glucosyltransferase C activity: 30 mM sucrose, pH 6.0, 1 h, 37° C.; for remaining enzyme activity: normalized to solvent control, FIG. 2. Here is the method:
(§1) For this purpose, the test substance was resuspended in a DMSO/ethanol mixture (20/80%) and then diluted in the reaction mixture to the concentration to be tested (final concentration DMSO/ethanol 2/8%). The glucosyltransferase GtfC (0.3 μg, nzytech) was incubated in 100 mM potassium phosphate buffer, pH 6.0 with 30 mM sucrose for one hour at 37° C. in the presence of the test substances. As a positive control, the enzyme activity was measured in the presence of DMSO/ethanol (2/8%). […] For this purpose, the D-fructose and D-glucose assay kit from Megazyme (K-FRUGL) was used.
D-glucose and D-fructose are phosphorylated in the presence of adenosine-5-triphosphate (ATP) to glucose-6-phosphate (G-6-P) and fructose-6-phosphate (F-6-P) by the enzyme hexokinase (HK), producing adenosine 5′-diphosphate (ADP) (1), (2).
In the presence of the enzyme glucose-6-phosphate dehydrogenase (G6P-DH), G-6-P is oxidized to gluconate-6-phosphate by nicotinamide adenine dinucleotide (NADP^+). This produces reduced nicotinamide adenine dinucleotide phosphate (NADPH) (3).
The amount of NADPH formed in this reaction corresponds stoichiometrically to the amount of D-glucose. The absorption of NADPH is measured at 340 nm.
After completion of the reaction (3), F-6-P is converted to G-6-P by phosphoglucose isomerase (PGI) (4).
The G-6-P formed reacts in turn with NADP^+ to form gluconate-6-phosphate and NADPH, which leads to a further increase in absorption and correlates stoichiometrically with the amount of D-fructose.
(§2) 9 independent reaction batches were measured in triplicate and the enzyme activity was normalized to the solvent control.

The nature of data set [3]: Solubility in the GtfC reaction mixture. Format: physicochemical. Particulars: 6 mM; final DMSO/ethanol 2/8%. As to the method: as §1, §2
Setting [4] is: pH 6, read-out: inhibition of glucosyltransferase C activity.

T1 sequence (P13470 35-1455): as above

With “Mixture of 4′-(11,11-bisphosphonoundecanoxy)-7,5-dihydroxyflavone and 7-(11,11-bisphosphonoundecanoxy)-4′, 5-dihydroxyflavone [ApiBisPhos UD]”, in the data set with S. mutans biofilm, the “inhibition of biofilm formation on HAP surfaces” value worked out at 26±9%. In data set [1], the “inhibition of GtfC enzyme activity by substance bound to hydroxyapatite” value was “inhibit the GtfC enzyme activity of S. mutans to a considerable degree”. Moreover, the “inhibition of glucosyltransferase C activity” value in data set [2] (1 mM) was 72±9%; in data set [2] (3 mM), 90±4%; in data set [2] (6 mM) it was 99±2%. The remaining enzyme activity entry is reported as “less than 30%” in data set [2] (1 mM) and “about 10%” in data set [2] (3 mM).
For “Mixture of 4′-(12,12-bisphosphono-3,6,9-trioxadodecanoxy)-7,5-dihydroxyflavone and 7-(12,12-bisphosphono-3,6,9-trioxadodecanoxy)-4′,5-dihydroxyflavone [ApiBisPhos EG]”, the “inhibition of GtfC enzyme activity by substance bound to hydroxyapatite” value in data set [1] is reported as “inhibit the GtfC enzyme activity of S. mutans to a considerable degree”.
Take `O=c1cc(-c2ccc(O)cc2)oc2cc(O)cc(O)c12` [apigenin, reference compound]: the solubility result in data set [3] is recorded as “insufficient solubility”. Besides, in data set [2] (setting [4]), the inhibition at 1000 µM was 38 ± 10% and the inhibition at 3000 µM is 53 ± 6%.

(Values after patent US12590111B2, “Flavonoid derivative for treating dental caries” (Mühlbauer Technology GmbH, priority 2019, dated 2026).)
